Test results as given in BindingDB's records for doi:10.1016/s0968-0896(99)00306-5 (University of Bologna, 2000).

How the values were obtained:
Acetylcholinesterase = Acetylcholinesterase (Homo sapiens, UniProt P22303); assay: Cholinesterase Inhibition Assay
Method: (§1) The cholinesterase assays were performed using colorimetric method reported by Ellman. The absorbance changes at 412 nm were recorded for 5 min with a Jasco Uvidec-610 double beam Spectrophotometer. The reaction rates were compared and the percent inhibition due to the presence of test compounds was calculated. Inhibition curve was obtained for each compound.

Cholinesterase = Cholinesterase (Homo sapiens, UniProt P06276); assay: Cholinesterase Inhibition Assay; details: pH 8; 37 °C
Method: as §1

Cholinesterase, sequence (P06276 whole entry): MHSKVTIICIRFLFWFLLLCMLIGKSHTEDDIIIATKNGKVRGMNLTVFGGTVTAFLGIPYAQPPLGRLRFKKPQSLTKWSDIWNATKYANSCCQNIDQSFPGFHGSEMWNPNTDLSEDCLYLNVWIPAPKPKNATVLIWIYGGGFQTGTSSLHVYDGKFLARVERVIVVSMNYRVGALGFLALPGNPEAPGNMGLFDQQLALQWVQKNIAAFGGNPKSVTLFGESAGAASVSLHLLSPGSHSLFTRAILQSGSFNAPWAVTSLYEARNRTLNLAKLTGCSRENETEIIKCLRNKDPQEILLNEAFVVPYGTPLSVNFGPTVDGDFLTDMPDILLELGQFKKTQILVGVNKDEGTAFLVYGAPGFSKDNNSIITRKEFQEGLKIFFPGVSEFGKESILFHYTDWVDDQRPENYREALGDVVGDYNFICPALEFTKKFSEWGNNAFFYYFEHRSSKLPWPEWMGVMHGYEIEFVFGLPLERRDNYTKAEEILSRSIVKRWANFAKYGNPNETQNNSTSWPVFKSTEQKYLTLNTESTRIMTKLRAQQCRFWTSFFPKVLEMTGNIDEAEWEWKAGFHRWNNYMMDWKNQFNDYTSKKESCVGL
Acetylcholinesterase, sequence (P22303 whole entry): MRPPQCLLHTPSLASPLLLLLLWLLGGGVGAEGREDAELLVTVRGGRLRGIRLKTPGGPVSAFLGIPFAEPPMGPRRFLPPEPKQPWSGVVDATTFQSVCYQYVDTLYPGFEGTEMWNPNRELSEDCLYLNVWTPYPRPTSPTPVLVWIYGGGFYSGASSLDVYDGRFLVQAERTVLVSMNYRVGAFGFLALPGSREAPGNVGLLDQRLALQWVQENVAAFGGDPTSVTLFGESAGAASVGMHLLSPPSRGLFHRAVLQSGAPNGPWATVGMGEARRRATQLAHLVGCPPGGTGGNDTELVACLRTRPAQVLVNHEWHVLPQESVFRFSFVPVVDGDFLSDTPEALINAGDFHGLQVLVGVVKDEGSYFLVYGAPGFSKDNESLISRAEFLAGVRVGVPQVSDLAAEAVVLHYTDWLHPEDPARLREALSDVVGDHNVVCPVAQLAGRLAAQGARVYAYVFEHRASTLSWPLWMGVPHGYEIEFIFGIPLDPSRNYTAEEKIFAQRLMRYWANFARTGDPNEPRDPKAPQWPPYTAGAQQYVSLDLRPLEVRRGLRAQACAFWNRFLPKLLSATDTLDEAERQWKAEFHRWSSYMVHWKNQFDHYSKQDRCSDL

SMILES	IC50 (Acetylcholinesterase) [µM]	IC50 (Cholinesterase) [µM]	Ki (Acetylcholinesterase) [µM]
Nc1c2c(nc3ccc([N+](=O)[O-])cc13)-c1ccccc1C2 [2-nitro-10H-indeno[1,2-b]quinolin-11-amine]	> 100	–	–
Nc1c2c(nc3ccccc13)-c1ccc(F)cc1C2 [8-fluoro-10H-indeno[1,2-b]quinolin-11-amine]	0.43	7.1	–
CCCCCCCNc1c2c(nc3ccccc13)-c1ccccc1C2 [N-Heptyl-N-11H-indeno-[1,2-b]-quinolin-10-yl)-amine]	4.3	–	–
Nc1c2c(nc3cc(F)ccc13)-c1ccccc1C2 [3-fluoro-10H-indeno[1,2-b]quinolin-11-amine]	1.2	5.7	–
Nc1ccc2c(N)c3c(nc2c1)-c1ccccc1C3 [11H-Indeno-[1,2-b]-quinolin-7,10-diamine]	29	–	–
Nc1c2c(nc3ccccc13)-c1ccc(Cl)cc1C2 [8-chloro-10H-indeno[1,2-b]quinolin-11-amine]	5.4	–	–
Cc1ccc2c(c1)-c1nc3ccccc3c(N)c1C2 [7-methyl-10H-indeno[1,2-b]quinolin-11-amine]	4.6	–	–
Nc1c2c(nc3cc(Cl)ccc13)-c1ccccc1C2 [3-chloro-10H-indeno[1,2-b]quinolin-11-amine]	6.5	–	–
CNc1c2c(nc3ccccc13)-c1ccccc1C2 [N-methyl-10H-indeno[1,2-b]quinolin-11-amine]	1.3	1.6	–
Nc1c2c(nc3cc([N+](=O)[O-])ccc13)-c1ccccc1C2 [3-nitro-10H-indeno[1,2-b]quinolin-11-amine]	67.5	–	–
COc1ccc2c(c1)-c1nc3ccccc3c(N)c1C2 [7-methoxy-10H-indeno[1,2-b]quinolin-11-amine]	4.3	–	–
Cc1cccc2c1Cc1c-2nc2ccccc2c1N [9-methyl-10H-indeno[1,2-b]quinolin-11-amine]	3.9	–	–
Nc1ccc2nc3c(c(N)c2c1)Cc1ccccc1-3 [11H-Indeno-[1,2-b]-quinolin-8,10-diamine]	5.9	–	–
COc1ccc2c(c1)Cc1c-2nc2ccccc2c1N [8-methoxy-10H-indeno[1,2-b]quinolin-11-amine]	6.5	–	–
COc1cccc2c1Cc1c-2nc2ccccc2c1N [9-methoxy-10H-indeno[1,2-b]quinolin-11-amine]	1.6	3	–
c1ccc(CNc2c3c(nc4ccccc24)-c2ccccc2C3)cc1 [N-benzyl-10H-indeno[1,2-b]quinolin-11-amine]	7.1	0.5	7.5
Nc1c2c(nc3ccccc13)-c1ccccc1C2	–	4.7	0.21
